The source made the active and inactive calls. The calls are words filed in the database; no cut-off is given here.

The test system of assay [1] is PC-12. The experiment in a line: Anti-ferroptosis activity against RSL3-induced ferroptosis in rat PC-12 cells assessed as decrease in lipid peroxidation at 10 uM by BODIPY-C11 581/591 staining based fluorescence microscopic analysis. The assay is classed as functional, cell-based.
In assay [2] the test system is PC-12. The experiment in a line: Effect on SLC7A11 expression in RSL3-induced rat PC-12 cells at 10 uM preincubated with compound for 24 hrs followed by RSL3 stimulation and measured after 24 hrs by Western blotting analysis. The assay is classed as functional, cell-based. The note with it: time 48.0 hrs.
In assay [3] the test system is PC-12. Nature of the assay: Neuroprotective activity against RSL3-induced ferroptosis in rat PC-12 cells assessed as increase in survival rate at 10 uM preincubated with RSL3 stimulation followed by compound addition and measured after 24 hrs by CCK-8 assay (reference value: 54%). The class given is functional.
Assay [4] has as its system PC-12. The experiment in a line: Anti-ferroptosis activity against RSL3-induced ferroptosis in rat PC-12 cells assessed as increase in GSH level at 10 uM preincubated with compound for 24 hrs followed by RSL3 stimulation and measured after 24 hrs by […] method. The assay is classed as functional, cell-based. The note with it: time 48.0 hrs.
For assay [5], the system named is PC-12. The experiment in a line: Downregulation of NCOA4 level in RSL3-induced rat PC-12 cells at 10 uM preincubated with compound for 24 hrs followed by RSL3 stimulation and measured after 24 hrs by Western blotting analysis. The assay is classed as functional, cell-based. As to conditions: time 48.0 hrs.
Assay [6] relates to PC-12. Nature of the assay: Upregulation of ferritin level in RSL3-induced rat PC-12 cells at 10 uM preincubated with compound for 24 hrs followed by RSL3 stimulation and measured after 24 hrs by Western blotting analysis. The class given is functional, cell-based. The note with it: time 48.0 hrs.
Assay [7] has as its system PC-12. Nature of the assay: Neuroprotective activity against RSL3-induced ferroptosis in rat PC-12 cells assessed as increase in survival rate at 10 uM preincubated with RSL3 stimulation followed by compound addition and measured after 24 hrs by CCK-8 assay. The assay is classed as functional, cell-based.
Assay [8] concerns PC-12. Nature of the assay: Upregulation of SLC7A11 expression in RSL3-induced rat PC-12 cells at 10 uM preincubated with compound for 24 hrs followed by RSL3 stimulation and measured after 24 hrs by Western blotting analysis. As to conditions: time 48.0 hrs. The class given is functional, cell-based.

For the compound `C/C(=C\Cc1ccc2c(c1)NC(=O)C2)C(=O)O`, the outcome in the assay on PC-12 [1], in the assay with PC-12 [4], in the assay with PC-12 [5] and in the assay on PC-12 [6] was Active. Moreover, the outcome with PC-12 [2] was inactive. Besides, in the assay with PC-12 [3], the Activity came to 84%.
For the compound `OCc1c[nH]c2ccccc12`, the result in the assay with PC-12 [7] was Active.
Turning to `C/C=C(C)/C=C(\C)[C@H]1C(C)=C[C@]2(C)C[C@H](C)CC[C@H]2[C@@H]1C(=O)[C@H]1C(=O)NC(=O)[C@@H]1Cc1c[nH]c2ccccc12`, the result in the assay on PC-12 [1], with PC-12 [7], with PC-12 [8], with PC-12 [5] and in the assay with PC-12 [6] was Active.
As for `CC(C)=CCc1ccc2c(c1)NC(=O)C2`, the Activity in the assay on PC-12 [3] is 77%.
In the case of `CC(=O)NCCc1ccc(O)cc1`, in the assay on PC-12 [3], the Activity is 83%.

(Values after ChEMBL document CHEMBL6121020, “Neuroprotective Indole Alkaloids from the Soil-Derived Fungus Trichocladium sp. XZ8” (2025).)
